Assays:
[1] = tested on: ARPE cells; experiment: Mitochondrial biomass and potential (MitoTracker staining / flow cytometry) in ARPE cells; format: cell-based, human; details: 10 fold dilutions 100 nM to 0.001 nM; 48 hours
Procedure: Representative 5-HT2A Receptor Agonist, R-DOI, Increases Mitochondrial Biogenesis and Function at low nM to sub nanomolar concentrations thereby reversing adverse processes that underlie development and progression of the Pathophysiology of Age-Associated Ocular and Neurodegenerative Diseases. ARPE cells were plated and treated with 10 fold dilutions of R-DOI from 100 nM to 0.001 nM. 48 hours post treatment, mitochondrial biomass was assessed either by staining for mitochondria using mitotracker (green, left panel) or via flow cytometry using MitoTracker Red CMOXROS that assesses both mitochondrial biomass and mitochondrial potential.

[2] = tested on: ARPE-19 cells; experiment: Hyperglycemia induced SA-β-Gal cellular senescence in ARPE-19 cells (HPLM); format: cell-based, human; details: 10 nM; HPLM with 5, 10, 20 or 30 mM glucose, 72 hours
Procedure: Consistent with Retinal Deterioration by Glucose-Induced Cellular Senescence in the Diabetic Population, Hyperglycemic conditions induce increased disease promoting Cellular Senescence that is abrogated by low nM concentrations of the Representative 5-HT2A Receptor Agonist, R-DOI Returning to Base-line Homeostatic Levels. ARPE-19 cells in physiologically relevant media (HPLM; 7% FCS) were seeded overnight prior to being replaced with starvation media (HPLM 0.5% FCS) containing 10 nM R-DOI. After overnight incubation in starvation media, cells were swapped to media containing diabetic blood glucose levels (HPLM 7% FCS containing 5 mM, 10 mM, 20 mM, or 30 mM glucose) for 72-hours. After the 72-hour incubation, cells were fixed and stained for SA-β-Gal for 6-hours. Cells nuclei were then stained with DAPI for total-cell enumeration. SA-β-Gal positive cells, and total cells per frame, were quantified by microscopy. Pathological/diabetic glucose concentrations induce cellular senescence. 5-HT2A receptor agonism alleviates glucose-induced senescence at diabetic blood glucose levels. […]
Effects of specific phenethylamine 5-HT2A receptor agonists on reduction of Hyperglycemia induced Disease Promoting Cellular Senescence: Inhibition of Cell Senescence and Disease Processes are Drug and Dose Dependent. […] SA-3-Gal positive cells, and total cells per frame, were quantified by microscopy. For each 5-HT2A agonist assessed, the % of senescent cells is expressed relative to the hyperglycemic control. […]
Inhibition of Cell Senescence and Disease Processes are Drug and Dose Dependent. […] SA-β-Gal positive cells, and total cells per frame, were quantified by microscopy. For each 5-HT2A agonist assessed, the % of senescent cells is expressed relative to the hyperglycemic control. […]

[3] = tested on: SIRT1 and 3; experiment: Western analysis of Sirtuin (SIRT) 1 and 3 expression; format: cell-based; details: varying concentrations, increased as concentrations decreased to nM
Description: Sirtuins utilize NAD to suppress pathophysiological processes of aging, including diabetic retinopathies, AMD and Neurodegeneration. Representative western analysis of Sirtuin (SIRT) 1 and 3 expression following cellular treatment with the representative 5-HT2A Receptor agonist R-DOI at varying concentrations.

[4] = tested on: ARPE cells; experiment: Cumene hydroperoxide induced lipid peroxidation in ARPE cells (BODIPY); format: cell-based, human; details: 100 nM and 1 nM overnight; 100 uM cumene hydroperoxide
Procedure: Representative 5-HT2A Receptor Agonist, R-DOI, Decreases Oxidative stress induced lipid peroxidation at low nM concentrations thereby reversing adverse processes that underlie development and progression of the Pathophysiology of Age-Associated Ocular and Neurodegenerative Diseases. ARPE cells were plated and mock treated or treated with the 5HT2A agonist R-DOI at 100 nM or 1 nM concentrations. Following an overnight incubation, live ARPE cells were labeled with an lipid peroxidation indicator dye BODIPY that changes fluorescence from red to green as it becomes oxidized. Cells were subsequently treated with 100 uM cumene hydroperoxide to induce lipid peroxidation and cellular oxidative stress and imaged in the red and green channels to assess the protective effects of 5HT2A agonists on lipid peroxidation. In the absence of 5HT2A agonists, there was a clear increase in green fluorescence present following treatment with cumene hydroperoxide.

[5] = tested on: intracellular H2O2; experiment: Intracellular H2O2 (ROS-Glo bioluminescence) in ARPE-19 cells at diabetic glucose concentrations; format: cell-based, human; details: 10 nM; glucose 5, 10, 20, 30 mM; 72 hours
Procedure: Hyperglycemic conditions induce increased disease promoting ROS production that is abrogated by low nM concentrations of the Representative 5-HT2A Receptor Agonist. R-DOI Returning to Base-line Homeostatic Levels. ARPE-19 cells were plated using physiological media (HPLM; 7% FCS) overnight prior to starvation (HPLM 0.5% FCS) overnight with or without 10 nM R-DOI. Cells were then replaced with HPLM 7% FCS containing a range of glucose concentrations spanning diabetic blood glucose levels (5 mM, 10 mM, 20 mM, and 30 mM) with or without the addition of 10 nM R-DOI for 72-hours. Cells were then lysed to quantify intracellular H2O2 levels via bioluminescence as described above. Low dose 5-HT2A agonists abrogate the hyperglycemic induced induction od ROS that is pathophysiological for development and progression of neurodegenerative and ocular age-related diseases, especially within diabetic patients, or patients that have conditions that induce increased levels of blood glucose. Pathological glucose concentrations increase intracellular H2O2. 5-HT2AR agonism alleviates glucose-induced intracellular H2O2 at diabetic glucose concentrations.
Evaluating intracellular reactive oxygen species (ROS) levels (FIG. 67). Promega's ROS-Glo H2O2 assay enables researchers to evaluate intracellular ROS levels. […]

COc1cc(C[C@@H](C)N)c(OC)cc1I (single isomer, unassigned) [R-DOI, R enantiomer 2,5-Dimethoxy-4-iodoamphetamine]
mitochondrial biomass and mitochondrial potential [1]: increased both mitochondrial biomass and potential
hyperglycemia induced cellular senescence (SA-β-Gal positive cells) [2]: abrogated
SIRT1 and 3 expression [3]: induced
SIRT1 and 3 expression ([3]; listed as (R)-DOI): upregulates SIRT1
oxidative stress induced lipid peroxidation [4]: abrogated lipid peroxidation
hyperglycemia induced ROS production (intracellular H2O2) [5]: abrogated
